Drawing on patent publication US20060293315A1, “Intermediates of novel heterocyclic compounds having antibacterial activity and process for their preparation” (Dr. Reddy's Laboratories Ltd., priority 2001, published 2006), this text covers melting point for 71 compounds.

Molecules are shown by their SMILES.

Consider `NC[C@H]1CN(c2ccc(N3CCOC3=O)c(F)c2)C(=O)O1` [Example 53], for which the melting point was 147 °C.

Compound `NC[C@H]1CN(c2ccc(N3CCOC3=O)cc2)C(=O)O1` [Example 59] gave a melting point of 189 to 191 °C. The compound `CCC(=O)NC[C@H]1CN(c2ccc(N3CCOC3=O)c(F)c2)C(=O)O1` [Example 67] registered a melting point of 203 °C.

As for `CCCC(=O)NC[C@H]1CN(c2ccc(N3CCOC3=O)c(F)c2)C(=O)O1` [Example 68], the melting point is 211 °C. As for `CCCCC(=O)NC[C@H]1CN(c2ccc(N3CCOC3=O)c(F)c2)C(=O)O1` [Example 69], the melting point came out at 187 °C. The result for `CCCCCCC(=O)NC[C@H]1CN(c2ccc(N3CCOC3=O)c(F)c2)C(=O)O1` [Example 70] reads 131 °C; that for `C=CC(=O)NC[C@H]1CN(c2ccc(N3CCOC3=O)c(F)c2)C(=O)O1` [Example 71], 196 °C. With `O=C1O[C@@H](CNC(=O)C(F)(F)F)CN1c1ccc(N2CCOC2=O)c(F)c1` [Example 72] the figure was 194 °C; with `CCOC(=O)C(=O)NC[C@H]1CN(c2ccc(N3CCOC3=O)c(F)c2)C(=O)O1` [Example 73], 160 °C; with `CC(=O)NC[C@H]1CN(c2ccc(N3CCSC3=S)c(F)c2)C(=O)O1` [Example 76], 220 °C. With `CC(=O)NC[C@H]1CN(c2ccc(N3CCN(C)C3=S)c(F)c2)C(=O)O1` [Example 77] the figure was 171 °C. The compound `CC(=O)NC[C@H]1CN(c2ccc(-n3c(=O)oc4cc(C)ccc43)c(F)c2)C(=O)O1` [Example 79] registered a melting point of 213 °C.

Take `CC(=O)NC[C@H]1CN(c2ccc(-n3c(=O)oc4ccc(C)cc43)c(F)c2)C(=O)O1` [Example 80]: the melting point amounted to 202 °C.

The compound `CC(=O)NC[C@H]1CN(c2ccc(N3CCOC3=O)c(C(F)(F)F)c2)C(=O)O1` [Example 81] showed a melting point of 143 °C. For `CCC(=O)NC[C@H]1CN(c2ccc(N3CCOC3=O)c(C(F)(F)F)c2)C(=O)O1` [Example 82], the melting point turned out to be 143 °C. `C=CC(=O)NC[C@H]1CN(c2ccc(N3CCOC3=O)c(C(F)(F)F)c2)C(=O)O1` [Example 84] yielded a melting point of 191 °C.

On to `CC(=O)NC[C@H]1CN(c2ccc(N3CCOC3=O)cc2F)C(=O)O1` [Example 85], for which the melting point worked out at 120 °C.

In turn, `CC(=O)NC[C@H]1CN(c2cc(F)c(N3CCOC3=O)c(F)c2)C(=O)O1` [Example 86] gave a melting point of 219 °C.

Consider `CCC(=O)NC[C@H]1CN(c2cc(F)c(N3CCOC3=O)c(F)c2)C(=O)O1` [Example 87], for which the melting point worked out at 224 °C.

For `CC(=O)NC[C@H]1CN(c2ccc(N3CCOC3=O)cc2)C(=O)O1` [Example 88], the melting point amounted to 231 °C. The compound `CC(=O)NC[C@H]1CN(c2ccc(-n3c(=O)oc4ccccc43)cc2)C(=O)O1` [Example 89] had a melting point of 229 °C.

`CC(=O)NC[C@H]1CN(c2ccc(N3CC(=O)N(C)C3)c(F)c2)C(=O)O1` [Example 90] returned a melting point of 230 °C. `CC(=O)NC[C@H]1CN(c2ccc(N3CCN(C)C3=O)c(F)c2)C(=O)O1` [Example 92] registered a melting point of 182 °C. The result for `CC(=O)NC[C@H]1CN(c2ccc(N3CCN(C)C3=O)cc2)C(=O)O1` [Example 93] reads 217 °C. Turning to `CC(=O)NC[C@H]1CN(c2ccc(N3CCN(Cc4ccccc4)C3=O)cc2)C(=O)O1` [Example 94], the melting point was 204 °C. In the case of `CC(=O)NC[C@H]1CN(c2ccc(N3CCN(c4ccccc4)C3=O)c(F)c2)C(=O)O1` [Example 95], the melting point came out at 182 °C.

`CC(=O)NC[C@H]1CN(c2ccc(N3CCN(c4ccc(F)cc4)C3=O)c(F)c2)C(=O)O1` [Example 96] came in with a melting point of 194 °C. Take `CC(=S)NC[C@H]1CN(c2ccc(N3CCOC3=O)c(F)c2)C(=O)O1` [Example 98]: the melting point worked out at 171 °C. Take `O=C1O[C@@H](CNC(=S)CC(F)(F)F)CN1c1ccc(N2CCOC2=O)c(F)c1` [Example 99]: the melting point amounted to 165 °C. `CC(=S)NC[C@H]1CN(c2ccc(N3CCN(C)C3=S)c(F)c2)C(=O)O1` [Example 100] had a melting point of 111 °C. The result for `CC(=S)NC[C@H]1CN(c2ccc(-n3c(=O)oc4ccccc43)c(F)c2)C(=O)O1` [Example 101] reads 137 °C. In turn, `CC(=S)NC[C@H]1CN(c2ccc(N3CCOC3=O)c(C(F)(F)F)c2)C(=O)O1` [Example 102] yielded a melting point of 154 °C.

In turn, `CC(=S)NC[C@H]1CN(c2cc(F)c(N3CCOC3=O)c(F)c2)C(=O)O1` [Example 103] returned a melting point of 108 °C.

`CCC(=S)NC[C@H]1CN(c2cc(F)c(N3CCOC3=O)c(F)c2)C(=O)O1` [Example 104] displayed a melting point of 168 °C. In the case of `CC(=S)NC[C@H]1CN(c2ccc(N3CCOC3=O)cc2)C(=O)O1` [Example 105], the melting point was determined as 195 °C. The result for `CC(=S)NC[C@H]1CN(c2ccc(N3CCN(c4ccccc4)C3=O)c(F)c2)C(=O)O1` [Example 106] reads 165 °C; that for `CC(=S)NC[C@H]1CN(c2cc(F)c(N3CNC(=O)C3)c(F)c2)C(=O)O1` [Example 108], 148 to 150 °C; that for `COC(=O)NC[C@H]1CN(c2ccc(N3CCOC3=O)c(F)c2)C(=O)O1` [Example 109], 153 °C.

The compound `COC(=O)NC[C@H]1CN(c2ccc(N3CCOC3=O)c(C(F)(F)F)c2)C(=O)O1` [Example 110] registered a melting point of 148 °C. With `COC(=O)NC[C@H]1CN(c2cc(F)c(N3CCOC3=O)c(F)c2)C(=O)O1` [Example 111] the figure was 157 °C; with `COC(=O)NC[C@H]1CN(c2ccc(N3CCOC3=O)cc2)C(=O)O1` [Example 112], 195 °C; with `COC(=O)NC[C@H]1CN(c2ccc(N3CC(=O)N(C)C3)c(F)c2)C(=O)O1` [Example 113], 226 °C. With `CSC(=S)NC[C@H]1CN(c2ccc(N3CCOC3=O)cc2)C(=O)O1` [Example 114] the figure was 161 °C. As for `CSC(=S)NC[C@H]1CN(c2cc(F)c(N3CCOC3=O)c(F)c2)C(=O)O1` [Example 115], the melting point was 147 °C. The result for `COC(=S)NC[C@H]1CN(c2ccc(N3CCOC3=O)c(F)c2)C(=O)O1` [Example 119] reads 137 °C; that for `CCOC(=S)NC[C@H]1CN(c2ccc(N3CCOC3=O)c(F)c2)C(=O)O1` [Example 120], 208 °C; that for `O=C1O[C@@H](CNC(=S)OC(=O)C(F)(F)F)CN1c1ccc(N2CCOC2=O)c(F)c1` [Example 121], 184 °C. The result for `O=C1OCCN1c1ccc(N2C[C@H](CNC(=S)OC3CCCCC3)OC2=O)cc1` [Example 122] reads 153 °C; that for `COC(=S)NC[C@H]1CN(c2ccc(N3CCOC3=O)c(F)c2)C(=O)O1` [Example 123], 197 °C. The result for `CCOC(=S)NC[C@H]1CN(c2ccc(N3CCN(C)C3=S)c(F)c2)C(=O)O1` [Example 124] reads 197 °C. Take `CCCOC(=S)NC[C@H]1CN(c2ccc(N3CCN(C)C3=S)c(F)c2)C(=O)O1` [Example 125]: the melting point was over 200 °C. The compound `COC(=S)NC[C@H]1CN(c2ccc(N3CCN(C)C3=S)c(F)c2)C(=O)O1` [Example 126] had a melting point of 179 °C. The result for `CC(C)OC(=S)NC[C@H]1CN(c2ccc(N3CCN(C)C3=S)c(F)c2)C(=O)O1` [Example 127] reads 183 °C; that for `COC(=S)NC[C@H]1CN(c2ccc(N3CCOC3=O)c(C(F)(F)F)c2)C(=O)O1` [Example 128], 146 °C. With `CCOC(=S)NC[C@H]1CN(c2ccc(N3CCOC3=O)c(C(F)(F)F)c2)C(=O)O1` [Example 129] the figure was 157 °C.

`COC(=S)NC[C@H]1CN(c2cc(F)c(N3CCOC3=O)c(F)c2)C(=O)O1` [Example 130]: the melting point came out at 182 °C.

`COC(=S)NC[C@H]1CN(c2ccc(N3CCOC3=O)cc2)C(=O)O1` [Example 131]: the melting point was determined as 153 °C. With `CCOC(=S)NC[C@H]1CN(c2ccc(N3CCOC3=O)cc2)C(=O)O1` [Example 132] the figure was 168 °C. The result for `CCCOC(=S)NC[C@H]1CN(c2ccc(N3CCOC3=O)cc2)C(=O)O1` [Example 133] reads 176 °C; that for `O=C1OCCN1c1ccc(N2C[C@H](CNC(=S)OCC(F)(F)F)OC2=O)cc1` [Example 134], 181 °C; that for `O=C1OCCN1c1ccc(N2C[C@H](CNC(=S)OCCO)OC2=O)cc1` [Example 135], 141 °C. Take `COCCOC(=S)NC[C@H]1CN(c2ccc(N3CCOC3=O)cc2)C(=O)O1` [Example 136]: the melting point was 149 °C. `C=CCOC(=S)NC[C@H]1CN(c2ccc(N3CCOC3=O)cc2)C(=O)O1` [Example 137] displayed a melting point of 150 °C. The result for `CC(C)OC(=S)NC[C@H]1CN(c2ccc(N3CCOC3=O)cc2)C(=O)O1` [Example 138] reads 140 °C.

`COC(=S)NC[C@H]1CN(c2ccc(-n3c(=O)oc4ccccc43)cc2)C(=O)O1` [Example 139] came in with a melting point of 141 °C. Regarding `CCOC(=S)NC[C@H]1CN(c2ccc(-n3c(=O)oc4ccccc43)cc2)C(=O)O1` [Example 140], the melting point came out at 147 °C. With `COC(=S)NC[C@H]1CN(c2ccc(N3CC(=O)N(C)C3)c(F)c2)C(=O)O1` [Example 141] the figure was 218 °C; with `COC(=S)NC[C@H]1CN(c2ccc(N3CCN(C)C3=O)cc2)C(=O)O1` [Example 142], 209 °C. With `COC(=S)NC[C@H]1CN(c2ccc(N3CC(=O)N(C)C3)cc2)C(=O)O1` [Example 143] the figure was 205 °C. For `COC(=S)NC[C@H]1CN(c2ccc(N3CCN(C)C3=O)c(F)c2)C(=O)O1` [Example 144], the melting point is 146 °C. `COC(=S)NC[C@H]1CN(c2ccc(N3CCN(Cc4ccccc4)C3=O)cc2)C(=O)O1` [Example 145] showed a melting point of 170 °C.
